Experimental data published in patent publication US20260198495A1, “BINARY INSECTICIDE COMPOSITION AND USE THEREOF” (SHENYANG SINOCHEM AGROCHEMICALS R & D CO., LTD., priority 2022, published 2026).
≈ marks a conversion by molar mass, not a printed value.

How the values were obtained:
Assay type in all cases: in vivo
[1] = system: 2nd-instar nymphs of Frankliniella occidentalis Pergande; test: Joint toxicity of I-72 + carbosulfan, leaf spraying, Example 22, Table 22; settings: in Phaseolus vulgaris, 48 h
Experimental: Test subject: 2nd-instar nymphs of Frankliniella occidentalis Pergande, a sensitive strain reared indoors.
Preparation of the pesticide solution: according to different test requirements, the test samples in Table 1 were accurately weighed respectively with an electronic analytical balance. The technical pesticides were dissolved in acetone, and then diluted with 0.1% Tween 80 water into a series of pesticide solutions with a certain concentration gradient according to the experimental design dosage.
Test conditions: temperature: 25-27° C., humidity: RH 60%, and illumination: L:D=14:10
Experimental method: the spraying method was adopted. The kidney bean leaves cultivated in the greenhouse were selected, and the petioles were wrapped with moist degreased cotton and sealing film. They were evenly sprayed with the pesticide solution in the order from low dosage to high dosage according to the experimental design, placed in a 6-cm-diameter Petri dish with filter paper. After natural air-drying in the shade, the test insects were introduced, with 20 insects for each treatment and 3 replicates. In addition, a blank control was set up. […] The corrected mortality rate was calculated using the Abbott's formula, and the DPS data processing software was used for statistical analysis to calculate the toxicities (LC50 values) of the single test pesticides and the mixtures under the test ratios. […]

[2] = system: Frankliniella occidentalis Pergande; test: Joint toxicity of I-72 + organophosphorus insecticides, leaf dipping, Example 14, Table 14; settings: in Phaseolus vulgaris, foliar, 48 h
Text: Test target: Frankliniella occidentalis Pergande, a sensitive strain reared indoors.
Experimental method: first, kidney bean leaves were selected and dipped in the prepared pesticide solution for 10 s in the order from low dosage to high dosage according to the experimental design. After natural air-drying in the shade, they were placed in a 9-cm-diameter Petri dish with filter paper, and uniform and healthy test insects were introduced, with about 20 insects for each treatment and 3 replicates for each treatment. In addition, a blank control was set up.

[3] = system: 3rd-instar larvae of Chilo suppressalis (Walker); test: Joint toxicity of I-72 + organophosphorus insecticides, rice seedling dipping, Example 15, Table 15; settings: 48 h
Experimental: Test target: 3rd-instar larvae of Chilo suppressalis (Walker), a sensitive strain reared indoors.
(§1) Preparation of the pesticide solution: according to different test requirements, the test samples were accurately weighed respectively with an electronic analytical balance. The technical pesticides were dissolved in acetone, and then diluted with 0.1% Tween 80 water into a series of pesticide solutions with a certain concentration gradient according to the experimental design dosage.
Experimental method: first, tender and fresh rice seedlings were selected and dipped in the prepared pesticide solution for 10 s in the order from low dosage to high dosage according to the experimental design. After natural air-drying in the shade, they were cut into small sections of 5 cm, placed in a 9-cm-diameter Petri dish with filter paper, and uniform and healthy test insects were introduced, with 10 insects for each treatment and 3 replicates for each treatment. In addition, a blank control was set up.
(§2) The treated test materials were placed in an observation room, and the temperature, humidity and illumination of the observation room could be adjusted as needed. The number of dead and live insects was investigated 48 hours later. The corrected mortality rate was calculated using the Abbott's formula, and statistical analysis was performed with the DPS data processing software to obtain the toxicity regression equation, LC50 value and 95% confidence limit of each single test pesticide and each mixture of different ratios. Then, the co-toxicity coefficient of each ratio was calculated using the Sun Y-P method to evaluate the mixing effect (the same as in Example 1).

[4] = system: 3rd-instar larvae of Plutella xylostella; test: Joint toxicity of I-72 + chlorpyrifos, leaf-disk dipping, Example 16, Table 16; settings: in Brassica oleracea, 72 h
Experimental: Test target: 3rd-instar larvae of Plutella xylostella.
as §1
Experimental method: first, fresh cabbage leaves cultivated in the greenhouse were selected. The cabbage leaves were made into circular leaf disks with a diameter of 3 cm using a puncher and dipped in the prepared pesticide solution for 10 s in the order from low dosage to high dosage according to the experimental design. After natural air-drying in the shade, they were placed in a 9-cm-diameter Petri dish with filter paper, and uniform and healthy test insects were introduced, with 10 insects for each treatment and 3 replicates for each treatment. In addition, a blank control was set up.
The treated test materials were placed in an observation room, and the temperature, humidity and illumination of the observation room could be adjusted as needed. […] Then, the co-toxicity coefficient of each ratio was calculated using the Sun Y-P method to evaluate the mixing effect (the same as in Example 1).

[5] = system: Aphis gossypii Glover nymphs; test: Joint toxicity of I-72 + organophosphorus insecticides, cotton leaf spraying, Example 17, Table 17; settings: 48 h
Experimental: (§3) Test target: Aphis gossypii Glover nymphs, a sensitive strain reared indoors.
as §1
Experimental method: first, cotton leaves with uniform and consistent Aphis gossypii were selected, with about 20 insects on each leaf. Then, they were evenly sprayed with the pesticide solution in the order from low dosage to high dosage according to the experimental design, with 1.5 mL for each leaf and 3 replicates for each treatment. In addition, a blank control was set up.
as §2

[6] = system: Bemisia tabaci (Gennadius) nymphs; test: Joint toxicity of I-72 + organophosphorus insecticides, cotton leaf-disk spraying, Example 18, Table 18; settings: 96 h
Experimental: Test target: Bemisia tabaci (Gennadius) nymphs.
as §1
(§4) Experimental method: first, cotton leaves with neat and consistent Bemisia tabaci (Gennadius) nymphs were selected and made into leaf disks, with about 20 insects on each leaf disk. Then, they were evenly sprayed with the pesticide solution in the order from low dosage to high dosage according to the experimental design, with 1.5 mL for each leaf and 3 replicates for each treatment. In addition, a blank control was set up.
as §2, with “96” for “48”

adult Phyllotreta spp. = test: Joint toxicity of I-72 + organophosphorus insecticides, cabbage seedling spraying, Example 19, Table 19; settings: 72 h
Experimental: Test target: adult Phyllotreta spp., a sensitive strain reared indoors.
as §1
Experimental method: first, fresh cabbage seedlings cultivated in the greenhouse were selected and evenly sprayed with the pesticide solution in the order from low dosage to high dosage according to the experimental design. After natural air-drying in the shade, they were covered with a glass cover, and uniform and healthy test insects were introduced, with 10 insects for each treatment and 3 replicates for each treatment. In addition, a blank control was set up.
as §2, with “72” for “48”

[7] = system: 3rd-instar larvae of Hyphantria cunea; test: Joint toxicity of I-72 + organophosphorus insecticides, poplar leaf dipping, Example 20, Table 20; settings: foliar, 72 h
Text: Test target: 3rd-instar larvae of Hyphantria cunea, a sensitive strain reared indoors.
Experimental method: first, fresh and tender poplar leaves were selected, cut into small sections of 5 cm, and dipped in the prepared pesticide solution for 10 s in the order from low dosage to high dosage according to the experimental design. After natural air-drying in the shade, they were placed in a 9-cm-diameter Petri dish with filter paper, and uniform and healthy test insects were introduced, with 10 insects for each treatment and 3 replicates for each treatment. In addition, a blank control was set up.

[8] = system: 3rd-instar larvae of Ostrinia furnacalis Guenee; test: Joint toxicity of I-72 + organophosphorus insecticides, corn stalk dipping, Example 21, Table 21; settings: 48 h
Experimental: Test target: 3rd-instar larvae of Ostrinia furnacalis Guenee, a sensitive strain reared indoors.
as §1
Experimental method: first, fresh tender corn stalks cultivated in the greenhouse were selected, cut into small sections of 3 cm, and dipped in the prepared pesticide solution for 10 s in the order from low dosage to high dosage according to the experimental design. After natural air-drying in the shade, they were placed in a 9-cm-diameter Petri dish with filter paper, and uniform and healthy test insects were introduced, with 10 insects for each treatment and 3 replicates for each treatment. In addition, a blank control was set up.
as §2

Pyrrhalta aenescens = test: Joint toxicity of I-72 + fenobucarb, insect-dipping, Example 24, Table 24; settings: 24 h
Experimental: Test target: Pyrrhalta aenescens, a strain reared indoors.
Experimental method: the insect-dipping method was adopted. Pyrrhalta aenescens of the same size were selected, put into an insect-dipping cage, and evenly […] the pesticide solution in the order from low dosage to high dosage according to the experimental design, with dipping for 10 s for each treatment. They were placed in a 9-cm-diameter Petri dish with filter paper. After natural air-drying in the shade, feed was added, with 3 replicates for each treatment. In addition, a blank control was set up.
The treated test materials were placed in an observation room. The total number of test insects and the number of dead insects were investigated 24 hours later. The temperature, humidity and illumination of the observation room could be adjusted as needed. The test conditions, the preparation of the pesticide solution and the evaluation method were the same as those in Example 1.

[9] = system: second-instar larvae of Meloidogyne incognita; test: In vitro joint toxicity of I-72 + fluopyram, 24-well plate, Example 32, Table 32; settings: 48 h
Experimental: Test target: second-instar larvae of Meloidogyne incognita, a sensitive strain reared in a greenhouse.
as §1
Experimental method: the prepared pesticide solutions were added to a 24-well plate in the order from low dosage to high dosage according to the experimental design. In each well of each treatment, 50 nematodes were placed. Each drug had 5 concentrations set, with 3 replicates. After the treatment, the 24-well plate was placed in a constant temperature incubator at 25° C. In addition, a blank control group was set up. The number of dead and live insects was investigated 48 hours later. […] Then, the co-toxicity coefficient of each ratio was calculated using the Sun Y-P method to evaluate the mixing effect (the same as in Example 1).

[10] = system: adult Tetranychus cinnabarinus (Boisduval); test: Joint toxicity of I-72 + spirodiclofen, potted-seedling spraying, Example 25, Table 25; settings: A = compound I-72, B = spirodiclofen, 72 hours
Experimental: Test target: adult Tetranychus cinnabarinus (Boisduval), a sensitive strain reared indoors.
as §1
Experimental method: the activity of the mixture against the adult Tetranychus cinnabarinus (Boisduval) was determined by adopting the potted-seedling spraying method. First, the adult Tetranychus cinnabarinus of uniform size were transferred onto the leaves of kidney bean seedlings at the stage when the first pair of true leaves was fully expanded. After the adult mites had stabilized, the base number was counted. Then, the uniform spraying was performed with the pesticide solution in the order from low to high dose according to the experimental design, with 1.5 mL for each seedling and 3 replicates for each treatment. […]
The treated test materials were placed in an observation room, and the temperature, humidity and illumination of the observation room could be adjusted as needed. […] Then, the co-toxicity coefficient of each ratio was calculated using the Sun Y-P method to evaluate the mixing effect, as in Example 1.

[11] = system: Bemisia tabaci (Gennadius) nymphs; test: Joint toxicity of I-72 + spiromesifen, Example 27, Table 27; settings: A = compound I-72, B = spiromesifen; cotton leaf-disk spraying; 96 hours
Experimental: Test target: Bemisia tabaci (Gennadius) nymphs, a sensitive strain reared indoors.
as §1, §4
The treated test materials were placed in an observation room, and the temperature, humidity and illumination of the observation room could be adjusted as needed. The number of dead and live insects was investigated 96 hours later. […] Then, the co-toxicity coefficient of each ratio was calculated using the Sun Y-P method to evaluate the mixing effect (the same as in Example 1).

[12] = system: Aphis gossypii Glover nymphs; test: Joint toxicity of I-72 + spiropidion, Example 28, Table 28; settings: A = compound I-72, B = spiropidion; cotton leaf spraying; 48 hours
Experimental: as §3, §1
Experimental method: first, cotton leaves with uniform and consistent Aphis gossypii were selected, with about 30-40 insects on each leaf. Then, they were evenly sprayed with the pesticide solution in the order from low dosage to high dosage according to the experimental design, with 1.5 mL for each leaf and 3 replicates for each treatment. In addition, a blank control was set up.
(§5) The treated test materials were placed in an observation room, and the temperature, humidity and illumination of the observation room could be adjusted as needed. The number of dead and live insects was investigated 48 hours later. […] Then, the co-toxicity coefficient of each ratio was calculated using the Sun Y-P method to evaluate the mixing effect (the same as in Example 1).

[13] = system: 2nd-instar larvae of Plutella xylostella; test: Joint toxicity of I-72 + spiropidion, Example 31, Table 31; settings: A = compound I-72, B = spiropidion; cabbage leaf dipping; 72 hours
Experimental: Test target: 2nd-instar larvae of Plutella xylostella.
as §1
Experimental method: first, cabbage leaves were selected and dipped in the prepared pesticide solution for 10 s in the order from low dosage to high dosage according to the experimental design. After natural air-drying in the shade, they were placed in a 9-cm-diameter Petri dish with filter paper, and uniform and healthy test insects were introduced, with 10 insects for each treatment and 3 replicates for each treatment. In addition, a blank control was set up.
The treated test materials were placed in an observation room, and the temperature, humidity and illumination of the observation room could be adjusted as needed. The number of dead and live insects was investigated 72 hours later. […] Then, the co-toxicity coefficient of each ratio was calculated using the Sun Y-P method to evaluate the mixing effect (the same as in Example 1).

[14] = system: Thrips flavus Schrank nymphs; test: Joint toxicity of I-72 + spirotetramat, Example 26, Table 26; settings: in Solanum melongena, 48 h
Experimental: Test target: Thrips flavus Schrank nymphs.
as §1
Experimental method: first, eggplant seedlings with Thrips flavus Schrank were selected, and the base number was counted. Then, uniform spraying was performed with the pesticide solution in the order from low to high doses according to the experimental design, with 2 mL for each seedling and 3 replicates for each treatment. In addition, a blank control was set up.
as §5

[15] = system: adult Tetranychus urticae Koch; test: Joint toxicity of I-72 + spirobudifen, Example 29, Table 29; settings: 72 h
Experimental: as §1
In addition, a blank control was set up.
The treated test materials were placed in an observation room, and the temperature, humidity and illumination of the observation room could be adjusted as needed.

[16] = system: Unaspis yanonensis Kuwana nymphs; test: whole plant or invertebrate; settings: foliar, 120 h
Experimental: Test target: Unaspis yanonensis Kuwana nymphs.
as §1
Experimental method: the activity of the mixture against Unaspis yanonensis Kuwana nymphs on citrus was determined by adopting the dipping method. First, the collected citrus leaves with Unaspis yanonensis Kuwana nymphs were treated with the pesticide solution in the order from low dosage to high dosage according to the experimental design. After air-drying, the petioles were kept moist with degreased cotton, and then the leaves were placed in a Petri dish, with 3 replicates for each treatment. In addition, a blank control was set up.
The treated test materials were placed in an observation room, and the temperature, humidity and illumination of the observation room could be adjusted as needed. The number of dead and live insects was investigated 120 hours later.

CCCCN(CCCC)SN(C)C(=O)Oc1cccc2c1OC(C)(C)C2 [carbosulfan, reference compound]
LC50 [1]: 43.2 mg/L

CCOP(=S)(OCC)Oc1nc(Cl)c(Cl)cc1Cl [chlorpyrifos]
LC50 [2]: 4.6 mg/L | LC50 [3]: 1.96 mg/L | LC50 [4]: 13.7 mg/L | LC50 [5]: 4.16 mg/L | LC50 [6]: 12.1 mg/L | LC50 (adult Phyllotreta spp.): 40.4 mg/L | LC50 [7]: 5.24 mg/L | LC50 [8]: 5.18 mg/L

CCC(C)c1ccccc1OC(=O)NC (stereo not drawn) [fenobucarb]
LC50 (Pyrrhalta aenescens): 37.2 mg/L

O=C(NCCc1ncc(C(F)(F)F)cc1Cl)c1ccccc1C(F)(F)F [fluopyram]
LC50 [9]: 0.609 mg/L

CCC(C)(C)C(=O)OC1=C(c2ccc(Cl)cc2Cl)C(=O)OC12CCCCC2 [spirodiclofen]
LC50 [10]: 14.5033 mg/L

Cc1cc(C)c(C2=C(OC(=O)CC(C)(C)C)C3(CCCC3)OC2=O)c(C)c1 [spiromesifen]
LC50 [11]: 10.6291 mg/L

CCOC(=O)OC1=C(c2c(C)cc(Cl)cc2C)C(=O)N(C)C12CCN(OC)CC2 [spiropidion]
LC50 [12]: 4.8686 mg/L | LC50 [13]: 631.4873 mg/L

CCOC(=O)OC1=C(c2cc(C)ccc2C)C(=O)N[C@]12CC[C@@H](OC)CC2 [spirotetramat]
LC50 [14]: 12.3 mg/L | LC50 [15]: 8.2 mg/L | LC50 [16]: 8.91 mg/L (≈ 23.9 µM)
